# Legend:
# [1] = Aqueous solubility; type: physicochemical
# [2] = cited from earlier work
structure (smiles),measurement,setting,value
"CO[C@H]1C[C@@H]2CC[C@@H](C)[C@@](O)(O2)C(=O)C(=O)N2CCCC[C@H]2C(=O)O[C@H]([C@H](C)C[C@@H]2CC[C@@H](O)[C@H](OC)C2)CC(=O)[C@H](C)/C=C(\C)[C@@H](O)[C@@H](OC)C(=O)[C@H](C)C[C@H](C)/C=C/C=C/C=C/1C [Rapa, Rapamycin, reference compound]",Times Increased of Aqueous Solubility (Comp. vs. Rapa),[1]; ratio of compound solubility to Rapa solubility,1
same,solubility,[1]; water,2.6 µg/mL
same,oral bioavailability,[2],10%

# — PMC6271078 (Molecules, 2014)
